Paper PMC9611471 (Pharmaceutics, 2022)

Tests used:
SK2 = biological target: T1, SK2 (Homo sapiens, UniProt Q9NRA0); assay: SK2 activity assay (Adapta screening system); conditions: read-out: SK2 inhibitory efficacy
T1 sequence (Q9NRA0 1-654): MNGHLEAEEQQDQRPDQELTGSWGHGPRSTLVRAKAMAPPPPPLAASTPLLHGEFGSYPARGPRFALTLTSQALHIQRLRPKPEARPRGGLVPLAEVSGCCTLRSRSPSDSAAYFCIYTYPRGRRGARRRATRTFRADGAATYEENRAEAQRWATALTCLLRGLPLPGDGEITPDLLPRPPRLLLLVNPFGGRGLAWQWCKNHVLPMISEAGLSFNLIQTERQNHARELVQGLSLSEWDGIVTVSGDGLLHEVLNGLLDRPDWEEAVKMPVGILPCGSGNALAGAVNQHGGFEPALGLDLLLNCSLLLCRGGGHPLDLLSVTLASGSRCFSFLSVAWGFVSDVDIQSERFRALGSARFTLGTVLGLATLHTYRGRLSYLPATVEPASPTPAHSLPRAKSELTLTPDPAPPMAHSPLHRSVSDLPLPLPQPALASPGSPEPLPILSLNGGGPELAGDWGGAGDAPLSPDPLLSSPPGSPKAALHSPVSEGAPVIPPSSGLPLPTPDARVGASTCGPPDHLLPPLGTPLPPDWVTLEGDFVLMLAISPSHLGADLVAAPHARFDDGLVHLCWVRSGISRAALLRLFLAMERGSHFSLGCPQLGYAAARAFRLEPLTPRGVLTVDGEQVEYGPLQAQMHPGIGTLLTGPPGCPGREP

[1] = In vitro metabolic stability, human liver microsomes; conditions: pooled liver microsomes 0.5 mg/mL, NADPH, 37 °C, 0 and 30 min
A549 cells [2] = assay: Mitochondrial membrane potential measurement (JC-10); format: cell-based, human; conditions: 10 μM, 24 h
Procedure: To access the mechanism of cell death, Mitochondrial Membrane Potential (MMP) was performed using JC-10 cationic dye. […] Cells were collected, and 20 μM JC-10 dye prepared in HBSS solution (0.14 M NaCl, 0.005 M KCl, 0.001 M CaCl2, 0.005 M MgSO4-7H2O, 0.0004 M MgSO4-6H2O, 0.0003 M Na2HPO4-2H2O, 0.0004 M KH2PO4, 0.006 M D-glucose, 0.004 M NaHCO3, 0.002 M HEPES, and 0.02% Pluronic® F-127) was added to the cell for 30 min and mixed. The samples were protected from light and measured by using the MACS Quant Analyzer 10 Flow cytometer.

A549 cells [3] = assay: SK1 and SK2 protein (Western blotting) and mRNA (qRT-PCR) levels; format: cell-based, human; conditions: 5 and 10 μM, 24 h
Procedure: Western blotting measured changes in apoptosis-related proteins (PARP, BAX, BCL-2, Caspase-3). A549 cells (1 × 10^6 cells per well in 6-well plates) were incubated for 24 h. Cells were treated with concentrations of the compounds and incubated for 24 h. Then, cells were dissolved on ice for two hours with a lysis buffer containing a mixture of protease and phosphatase inhibitors. The lysate was centrifuged at 12,000× g for 15 min at 4 °C, and the supernatant was collected. Protein concentrations were measured using a bicinchoninic acid protein assay kit. Total protein was separated by 8–10% sodium dodecyl sulfate–polyacrylamide gel electrophoresis (SDS-PAGE) and transferred onto polyvinylidene fluoride (PVDF) membranes. After being blocked with 5% skim milk, membranes were probed overnight at 4 °C with primary antibodies against SK1, SK2, PARP, BAX, Bcl-2, Caspase-3, and β-actin. Then, the membranes were incubated with subsequent secondary antibodies at room temperature. Then, the protein expressions were measured by Amersham Imager 680 (GE Healthcare, Leiden, WZ, The Netherlands).
RNAs were isolated using the Trizol/chloroform reagent (Invitrogen, Waltham, MA, USA). […] For quantitative analysis of various genes, qRT-PCR was performed using the Bio-Rad CFX384 Touch Real-time PCR detection system (Bio-Rad, Hercules, CA, USA) with SYBR Premix Ex Taq (Takara Bio, Shiga, Japan) for 40 cycles.

[4] = Serum analysis of tumor xenograft mice; format: in vivo; conditions: serum biochemical assays; 5 mg/kg i.p., 29 days
Procedure: Five-week-old BALB/c-nu/nu male mice were purchased from Orient Bio Inc. (Seongnam, Gyeonggi-do, Korea). The mice were housed in a climate-controlled room (22 ± 2 °C, 50 ± 10% relative humidity) and specific pathogen-free conditions with a 12 h light/dark cycle and adapted for a week with free access to food and water. Cages, bedding, and drinking water were autoclaved and changed regularly. The cancer cell suspension {3 × 10^7 cells/ 150 μL phosphate-buffered saline (PBS)} was inoculated subcutaneously into the right flank. Measurable tumors were found 7–8 days after cell inoculation, and tumors grew in 90% of the injection site two weeks later. The mice were randomly divided into test groups (12 mice per group) when the tumor volume reached 100 mm^2 about two weeks after the inoculation (experimental day 0). The control group (vehicle-treated group) and Compound 4 (5 mg/kg) were administered i.p. 3 times a week. The formulation of Compound 4 was prepared in a mixture of 10% DMSO + 90% PBS. The tumor growth rate and body weights in each of the two groups were measured every three days using a Vernier caliper and a digital weighing balance, respectively. Tumor volume was calculated as l × b^2 × 0.52, where l is the length and b is the width. […]
Blood samples were centrifuged at 3000× g for 20 min, and levels of ALT, AST, ALP, sphingosine, ceramide, and S1P were measured using a kit.

## Cc1cc(CN(Cc2cc(C)cc(CS(=O)(=O)c3ccccc3)c2)c2ccc(CCN3CCC(CO)CC3)cc2)cc(CS(=O)(=O)c2ccccc2)c1 [Compound 4, (1-(4-(Bis(3-methyl-5-((phenylsulfonyl)methyl)benzyl)amino)phenethyl)piperidin-4-yl)methanol]
SK2
  inhibition at 10 µM: 49%
[1]
  MS HLM: 30.2
A549 cells [2]
  change in mitochondrial membrane potential (MMP), JC-10: significantly increased compared to that after treatment with PF-543
A549 cells [3]
  expression of proteins and mRNAs of SK1 and SK2: did not affect
[4]
  hepatotoxicity: does not appear to cause hepatotoxicity
